Measured values published in ChEMBL document CHEMBL5113380, “Functionalized quinoxalinones as privileged structures with broad-ranging pharmacological activities” (Eur J Med Chem, 2022).
In brackets after ≈: the same amount, converted by molar mass. One block for each compound: values may come before it.

Columns and labels:
[1] = Displacement of [3H]glycine from AMPA receptor (unknown origin); type: protein-complex assay, Homo sapiens
[2] = molecular target: T1, Glutamate receptor ionotropic AMPA (Homo sapiens, UniProt P42261+P42262+P42263+P48058); test: Displacement of [3H]AMPA from AMPA receptor (unknown origin); type: protein-complex assay
[3] = molecular target: Glutamate [NMDA] receptor; test: Displacement of [3H]DCKA from NMDA receptor (unknown origin); type: protein-complex assay, Homo sapiens
[4] = Inhibition of ALR2 (unknown origin); design: species or system Homo sapiens
[5] = Inhibition of ALR1 (unknown origin) relative to control; design: concentration or dose not given beside the values; conditions: Homo sapiens; concentration not given here
[6] = system: Candida albicans; test: Antifungal activity against Candida albicans; type: functional
[7] = system: Staphylococcus aureus; test: Antibacterial activity against Staphylococcus aureus; type: functional
[8] = system: Aspergillus niger; test: Antifungal activity against Aspergillus niger; type: functional
[9] = system: Bacillus cereus; test: Antibacterial activity against Bacillus cereus; type: functional
[10] = system: Pseudomonas aeruginosa; test: Antibacterial activity against Pseudomonas aeruginosa; type: functional
[11] = system: Escherichia coli; test: Antibacterial activity against Escherichia coli; type: functional
[12] = system: Trichophyton mentagrophytes; test: Antimicrobial activity against Trichophyton mentagrophytes; type: functional
[13] = molecular target: T1, Glutamate receptor ionotropic AMPA; test: Displacement of [3H]kainic acid from AMPA receptor (unknown origin); type: protein-complex assay
[14] = molecular target: T1, Glutamate receptor ionotropic AMPA; test: Binding affinity to AMPA receptor (unknown origin); type: protein-complex assay
[15] = Antioxidant activity assessed as DPPH radical scavenging activity; type: functional; conditions: read-out: IC50
[16] = molecular target: Glutamate receptor ionotropic, kainate 1 (Homo sapiens, UniProt P39086); test: Binding affinity to GluK1 receptor (unknown origin)
Sequence of Glutamate receptor ionotropic, kainate 1 (P39086 whole entry): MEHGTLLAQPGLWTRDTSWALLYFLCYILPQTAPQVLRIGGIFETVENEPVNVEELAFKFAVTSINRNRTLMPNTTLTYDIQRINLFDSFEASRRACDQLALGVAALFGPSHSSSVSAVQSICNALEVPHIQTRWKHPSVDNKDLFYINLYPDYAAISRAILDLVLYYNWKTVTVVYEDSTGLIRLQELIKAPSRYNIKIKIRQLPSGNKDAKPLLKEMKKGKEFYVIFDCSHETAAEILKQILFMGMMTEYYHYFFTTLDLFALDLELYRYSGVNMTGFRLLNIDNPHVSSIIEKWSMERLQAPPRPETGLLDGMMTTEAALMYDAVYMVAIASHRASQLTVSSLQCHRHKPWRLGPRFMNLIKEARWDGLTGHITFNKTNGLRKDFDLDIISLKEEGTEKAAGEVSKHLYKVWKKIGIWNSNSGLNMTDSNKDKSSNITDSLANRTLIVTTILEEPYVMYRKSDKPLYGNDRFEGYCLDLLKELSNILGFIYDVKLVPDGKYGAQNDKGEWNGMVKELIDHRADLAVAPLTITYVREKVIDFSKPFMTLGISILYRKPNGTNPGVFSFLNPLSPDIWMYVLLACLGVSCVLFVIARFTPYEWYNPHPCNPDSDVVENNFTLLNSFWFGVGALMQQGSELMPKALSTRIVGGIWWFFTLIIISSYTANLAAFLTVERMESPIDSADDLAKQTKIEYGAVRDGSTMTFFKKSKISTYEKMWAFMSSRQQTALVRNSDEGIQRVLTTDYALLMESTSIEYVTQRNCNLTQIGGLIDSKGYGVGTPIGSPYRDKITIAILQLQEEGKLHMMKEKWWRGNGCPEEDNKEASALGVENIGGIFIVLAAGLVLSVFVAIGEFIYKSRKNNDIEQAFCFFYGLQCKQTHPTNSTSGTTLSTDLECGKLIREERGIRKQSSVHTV

[17] = molecular target: Glutamate receptor 2 (Homo sapiens, UniProt P42262); test: Binding affinity to GluA2 receptor (unknown origin)
Sequence of Glutamate receptor 2 (P42262 whole entry): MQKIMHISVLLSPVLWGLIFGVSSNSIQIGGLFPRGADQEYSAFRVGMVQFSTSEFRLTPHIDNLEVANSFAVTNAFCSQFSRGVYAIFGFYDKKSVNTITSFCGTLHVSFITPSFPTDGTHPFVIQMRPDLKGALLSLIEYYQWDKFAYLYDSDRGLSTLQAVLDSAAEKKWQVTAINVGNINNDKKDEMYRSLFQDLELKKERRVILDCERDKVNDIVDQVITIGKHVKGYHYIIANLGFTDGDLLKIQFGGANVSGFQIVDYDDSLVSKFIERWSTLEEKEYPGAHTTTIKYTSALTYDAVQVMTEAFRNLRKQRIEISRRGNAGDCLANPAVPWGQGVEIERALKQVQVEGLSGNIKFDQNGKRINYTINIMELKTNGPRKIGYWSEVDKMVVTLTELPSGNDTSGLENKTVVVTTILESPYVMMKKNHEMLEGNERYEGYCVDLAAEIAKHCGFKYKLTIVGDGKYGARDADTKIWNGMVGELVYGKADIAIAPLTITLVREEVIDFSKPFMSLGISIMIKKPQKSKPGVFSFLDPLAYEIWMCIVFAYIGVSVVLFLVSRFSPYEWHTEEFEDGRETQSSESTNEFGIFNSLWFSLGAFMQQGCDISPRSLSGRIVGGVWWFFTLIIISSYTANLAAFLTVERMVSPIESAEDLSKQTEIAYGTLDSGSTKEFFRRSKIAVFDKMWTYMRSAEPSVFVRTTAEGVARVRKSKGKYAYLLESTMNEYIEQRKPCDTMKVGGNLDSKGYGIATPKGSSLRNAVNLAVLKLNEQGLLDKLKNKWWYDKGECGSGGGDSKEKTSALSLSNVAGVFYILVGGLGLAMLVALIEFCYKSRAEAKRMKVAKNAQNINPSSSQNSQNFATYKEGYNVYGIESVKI

Structure (SMILES): O=[N+]([O-])c1cc2nc(O)c(O)nc2nc1-n1ccnc1
Ki [1]: 10000 nM
Ki [2]: 140 nM

Structure (SMILES): CCCCCCCCC[n+]1cccc(-c2nc(-c3ccccc3)c3c(=O)n(CCCCCC)c4ccccc4n23)c1.[I-]
MBC [6]: 500 µg/mL
MIC [6]: 500 µg/mL
MBC [7]: 5 µg/mL
MIC [7]: 0.78 µg/mL
MBC [8]: > 500 µg/mL
MIC [8]: > 500 µg/mL
MBC [9]: 500 µg/mL
MIC [9]: 0.78 µg/mL
MBC [10]: > 500 µg/mL
MIC [10]: > 500 µg/mL
MBC [11]: > 500 µg/mL
MIC [11]: > 500 µg/mL
MBC [12]: > 500 µg/mL
MIC [12]: > 500 µg/mL

Structure (SMILES): C[C@H]1Cc2cc(Br)cc3[nH]c(=O)c(=O)n(c23)C1CC(=O)Nc1ccccc1 (some centres undefined)
Ki [3]: 3 nM

Structure (SMILES): O=c1[nH]c2c([N+](=O)[O-])c(Cl)c(Cl)c([N+](=O)[O-])c2nc1Oc1ccccc1
IC50 [4]: 1540 nM

Structure (SMILES): CCOC(=O)c1nc2cc(C(F)(F)F)ccc2[nH]c1=O
MIC [7]: 250 µg/mL (≈ 873 µM)
MIC [11]: 125 µg/mL (≈ 437 µM)

Structure (SMILES): O=C(O)Cn1c(=O)c(Oc2ccc(Br)cc2)nc2ccc(F)cc21
IC50 [4]: 11.4 nM
inhibition [5]: 30.7%

Structure (SMILES): O=C(Nc1ccc(C(=O)O)cc1)OCc1cn(-c2cc3nc(C(=O)O)c(=O)[nH]c3cc2[N+](=O)[O-])cn1
Ki [14]: 22 nM

Structure (SMILES): O=C1CSC(c2ccc([N+](=O)[O-])cc2)N1c1ccc2nc(Cc3ccc(O)cc3)c(=O)[nH]c2c1 (centres undefined)
IC50 [15]: 10500 nM

Structure (SMILES): NC(Cn1c(=O)c(=O)[nH]c2ccccc21)C(=O)O (centres undefined)
IC50 [2]: 690 nM

Structure (SMILES): CCc1nc2cc(C(F)(F)F)ccc2[nH]c1=O
MIC [10]: 62.5 µg/mL (≈ 258 µM)

Structure (SMILES): CCCCCCCCCn1c(=O)c2c(-c3ccccc3)nc(-c3ccc[n+](CCCCCCCCC)c3)n2c2ccccc21.[I-]
MBC [6]: > 500 µg/mL
MIC [6]: > 500 µg/mL
MBC [7]: 500 µg/mL
MIC [7]: 7.8 µg/mL
MBC [8]: > 500 µg/mL
MIC [8]: > 500 µg/mL
MBC [9]: > 500 µg/mL
MIC [9]: 7.8 µg/mL
MBC [10]: > 500 µg/mL
MIC [10]: > 500 µg/mL
MBC [11]: > 500 µg/mL
MIC [11]: > 500 µg/mL
MBC [12]: > 500 µg/mL
MIC [12]: > 500 µg/mL

The next lines start with results.

IC50 [1]: 470 nM
IC50 [2]: 140 nM
Structure (SMILES): CCc1c([N+](=O)[O-])cc2nc(O)c(O)nc2c1CN(C)CC(=O)O

Ki [2]: 190 nM
Structure (SMILES): O=c1[nH]c2cc([N+](=O)[O-])c(-n3ccnc3)nc2n2cnnc12

Ki [3]: 0.96 nM
Structure (SMILES): O=C(C[C@@H]1CCc2cc(Br)cc3[nH]c(=O)c(=O)n1c23)Nc1ccccc1

Ki [3]: 4.4 nM
Structure (SMILES): C[C@H]1Cc2cc(Cl)cc3[nH]c(=O)c(=O)n(c23)C1CC(=O)O (some centres undefined)

Ki [2]: 68 nM
Structure (SMILES): CCOC(=O)c1nc2c(O)nc3cc([N+](=O)[O-])c(-n4ccc(C(=O)O)c4)cc3n2n1

IC50 [4]: 143 nM
inhibition [5]: 22%
Structure (SMILES): O=C(O)Cn1c(=O)c(CCc2ccccc2)nc2ccccc21

MIC [10]: 250 µg/mL (≈ 778 µM)
Structure (SMILES): CCOC(=O)c1nc2cc(F)c(N3CCOCC3)cc2[nH]c1=O

MIC [6]: 7.8 µg/mL
MIC [7]: 0.97 µg/mL
MIC [8]: > 500 µg/mL
MIC [9]: 6.3 µg/mL
MIC [10]: > 500 µg/mL
MIC [11]: > 500 µg/mL
MIC [12]: 500 µg/mL
Structure (SMILES): CCCCCCn1c(=O)c2c(-c3ccccc3)nc(-c3ccc[n+](Cc4ccccc4)c3)n2c2ccccc21.[Cl-]
MBC [6]: 500 µg/mL
MBC [7]: 50 µg/mL
MBC [8]: > 500 µg/mL
MBC [9]: > 500 µg/mL
MBC [10]: > 500 µg/mL
MBC [11]: > 500 µg/mL
MBC [12]: > 500 µg/mL

Ki [1]: 2300 nM
Ki [2]: 400 nM
IC50 [13]: 37000 nM
Structure (SMILES): O=C(O)c1nc2c(=O)[nH]c3cc(Cl)cc(-n4cnnc4)c3n2n1

MIC [6]: 50 µg/mL
MIC [7]: 1.5 µg/mL
MIC [8]: > 500 µg/mL
MIC [9]: 6.3 µg/mL
MIC [10]: > 500 µg/mL
MIC [11]: > 500 µg/mL
MIC [12]: 500 µg/mL
Structure (SMILES): CCCCCCCCCn1c(=O)c2c(-c3ccccc3)nc(-c3ccc[n+](CCCCCCCCC)c3)n2c2ccccc21.[Br-]
MBC [6]: 500 µg/mL
MBC [7]: 50 µg/mL
MBC [8]: > 500 µg/mL
MBC [9]: 500 µg/mL
MBC [10]: > 500 µg/mL
MBC [11]: > 500 µg/mL
MBC [12]: > 500 µg/mL

Ki [16]: 12700 nM
Ki [17]: > 100000 nM
Structure (SMILES): O=C(Nn1c(=O)c(=O)[nH]c2cc(C#CCCO)ccc21)c1ccccc1

MIC [11]: 125 µg/mL (≈ 437 µM)
Structure (SMILES): CCOC(=O)c1nc2ccc(C(F)(F)F)cc2[nH]c1=O

MIC [11]: 125 µg/mL (≈ 557 µM)
Structure (SMILES): O=C(O)c1nc2ccc(Cl)cc2[nH]c1=O
